Measured values reported in patent US20220332699A1 (SAGE THERAPEUTICS, INC., priority 2019, published 2022).

target: CYP46A1 (Homo sapiens, UniProt Q9Y6A2); experiment: CYP46A1 Enzyme Assay 2 (testosterone substrate, HPLC-MS); type: biochemical; conditions: read-out: IC50 (CYP46A1 inhibitory activity)
Experimental: Briefly, in a 384-well plate format, 10 μL per well of an enzyme-substrate mixture of CYP46A1 (5 μM final concentration) and Testosterone ([…] final concentration) were dispensed to wells containing test compound. For CYP46A1 titration, 5 μL per well of serially diluted CYP46A1 (concentrations including 10 μM, 5 μM, and 2.5 μM) and Testosterone (concentration of […]) were dispensed. For Testosterone titration, 5 μL per well of serially diluted Testosterone (concentrations including 10 μM, 5 μM, and 2.5 μM) and CYP46A1 (concentration of 5 μM) were dispensed. The plates were centrifuged at 1000 rpm for 30 seconds, and then sealed and incubated at 37° C. for 30 minutes. The plate was removed from the incubator, and then 10 μL per well of NADPH-generating system were dispensed to initiate the reaction. The plates were incubated at 37° C. for 15 minutes, added with 80 μL per well of 100% methanol consisting 1 ng/ml diclofenac as internal standard, and then transferred for HPLC-MS.

Sequence of CYP46A1 (Q9Y6A2 whole entry): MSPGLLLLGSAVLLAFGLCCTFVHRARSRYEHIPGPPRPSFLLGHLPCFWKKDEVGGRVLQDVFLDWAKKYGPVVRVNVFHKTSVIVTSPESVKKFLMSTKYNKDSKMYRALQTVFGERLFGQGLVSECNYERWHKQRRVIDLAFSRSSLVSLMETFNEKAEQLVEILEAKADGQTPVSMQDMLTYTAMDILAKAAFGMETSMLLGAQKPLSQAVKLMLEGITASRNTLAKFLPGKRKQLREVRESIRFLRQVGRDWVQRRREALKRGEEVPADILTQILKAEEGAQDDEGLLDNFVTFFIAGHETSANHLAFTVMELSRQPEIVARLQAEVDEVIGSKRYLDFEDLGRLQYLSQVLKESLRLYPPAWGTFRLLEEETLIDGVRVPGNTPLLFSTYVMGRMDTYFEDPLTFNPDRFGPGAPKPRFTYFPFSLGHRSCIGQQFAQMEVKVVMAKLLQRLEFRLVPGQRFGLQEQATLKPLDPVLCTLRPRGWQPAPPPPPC

Compound	IC50 [nM]
CS(=O)(=O)c1ccc(CC2(C#N)CCN(C(=O)c3cccnc3-c3ccncn3)CC2)cc1 [Compound A204, 4-(4-(methylsulfonyl)benzyl)-1-(2-(pyrimidin-4-yl)nicotinoyl)piperidine-4-carbonitrile]	100 to 1000
N#CC1(Cc2ccc(C(F)(F)F)nc2)CCN(C(=O)c2cccnc2-c2ccncn2)CC1 [Compound A222, 1-(2-(pyrimidin-4-yl)nicotinoyl)-4-((6-(trifluoromethyl)pyridin-3-yl)methyl)piperidine-4-carbonitrile]	100 to 1000
N#CC1(Cc2ccc(C(F)(F)F)cn2)CCN(C(=O)c2cccnc2-c2ccncn2)CC1 [Compound A228, 1-(2-(pyrimidin-4-yl)nicotinoyl)-4-((5-(trifluoromethyl)pyridin-2-yl)methyl)piperidine-4-carbonitrile]	100 to 1000
N#CC1(Cc2ccc(F)cc2C(F)(F)F)CCN(C(=O)c2cccnc2-c2ccncn2)CC1 [Compound A276, 4-(4-fluoro-2-(trifluoromethyl)benzyl)-1-(2-(pyrimidin-4-yl)nicotinoyl)piperidine-4-carbonitrile]	100 to 1000
Cc1ccc(C(=O)N2CCC(C#N)(Cc3ccc(F)cc3)CC2)c(-c2ccncn2)n1 [Compound A249, 4-(4-fluorobenzyl)-1-(6-methyl-2-(pyrimidin-4-yl)nicotinoyl)piperidine-4-carbonitrile]	> 1000
N#CC1(CCc2ccccc2)CCN(C(=O)c2cccnc2-c2ccncc2)CC1 [Compound A68, 1-([2,4′-bipyridine]-3-carbonyl)-4-phenethylpiperidine-4-carbonitrile]	100 to 1000
N#C[C@]1(Cc2ccc(F)cc2)[C@@H]2CC[C@H]1CN(C(=O)c1cccnc1-c1ccncn1)C2 [Compound A253, (1R,5S,8r)-8-(4-fluorobenzyl)-3-(2-(pyrimidin-4-yl)nicotinoyl)-3-azabicyclo[3.2.1]octane-8-carbonitrile]	> 1000
N#CC1(Cc2c(F)cc(F)cc2F)CCN(C(=O)c2cccnc2-c2ccncc2)CC1 [Compound A272, 1-([2,4′-bipyridine]-3-carbonyl)-4-(2,4,6-trifluorobenzyl)piperidine-4-carbonitrile]	< 100
N#CC1(Cc2ccc(F)cc2)CCN(C(=O)c2cc(C3CC3)ccc2-c2ccncn2)CC1 [Compound A254, 1-(5-cyclopropyl-2-(pyrimidin-4-yl)benzoyl)-4-(4-fluorobenzyl)piperidine-4-carbonitrile]	< 100
C[C@H](c1c(F)cccc1F)C1(C#N)CCN(C(=O)c2cccnc2-c2ccncn2)CC1 [Compound A243, (S)-4-(1-(2,6-difluorophenyl)ethyl)-1-(2-(pyrimidin-4-yl)nicotinoyl)piperidine-4-carbonitrile]	< 100
Cc1ccc(CC2(C#N)CCN(C(=O)c3cccnc3-c3ccncn3)CC2)cc1 [Compound A35, 4-(4-methylbenzyl)-1-(2-(pyrimidin-4-yl)nicotinoyl)piperidine-4-carbonitrile]	< 100
N#CC1(Cc2ccc(-c3ccccc3)cc2)CCN(C(=O)c2cccnc2-c2ccncc2)CC1 [Compound A19, 4-([1,1′-biphenyl]-4-ylmethyl)-1-([2,4′-bipyridine]-3-carbonyl)piperidine-4-carbonitrile]	< 100
N#CC1(Cc2ccc(F)cc2F)CCN(C(=O)c2cccnc2-c2ccncc2)CC1 [Compound A284, 1-([2,4′-bipyridine]-3-carbonyl)-4-(2,4-difluorobenzyl)piperidine-4-carbonitrile]	< 100
N#CC1(Cc2c(F)cccc2F)CCN(C(=O)c2cccnc2-c2ccncn2)CC1 [Compound A207, 4-(2,6-difluorobenzyl)-1-(2-(pyrimidin-4-yl)nicotinoyl)piperidine-4-carbonitrile]	< 100
CC(c1cc(F)cc(F)c1)C1(C#N)CCN(C(=O)c2cccnc2-c2ccncn2)CC1 (stereo in doubt) [Compound A257, (S)-4-(1-(3,5-difluorophenyl)ethyl)-1-(2-(pyrimidin-4-yl)nicotinoyl)piperidine-4-carbonitrile]	< 100
N#CC1(Cc2ccc(F)c(C(F)(F)F)c2)CCN(C(=O)c2cccnc2-c2ccncn2)CC1 [Compound A267, 4-(4-fluoro-3-(trifluoromethyl)benzyl)-1-(2-(pyrimidin-4-yl)nicotinoyl)piperidine-4-carbonitrile]	< 100
C[C@@H](c1ccc(F)cc1F)C1(C#N)CCN(C(=O)c2cccnc2-c2ccncc2)CC1 [Compound A238, (R)-1-([2,4′-bipyridine]-3-carbonyl)-4-(1-(2,4-difluorophenyl)ethyl)piperidine-4-carbonitrile]	< 100
N#CC1(Cc2cccc(Cl)c2)CCN(C(=O)c2cccnc2-c2ccncn2)CC1 [Compound A210, 4-(3-chlorobenzyl)-1-(2-(pyrimidin-4-yl)nicotinoyl)piperidine-4-carbonitrile]	< 100
C[C@H](c1ccc(C(F)(F)F)cc1)C1(C#N)CCN(C(=O)c2cccnc2-c2ccncn2)CC1 [Compound A251, (R)-1-(2-(pyrimidin-4-yl)nicotinoyl)-4-(1-(4-(trifluoromethyl)phenyl)ethyl)piperidine-4-carbonitrile]	< 100

The next lines start with the values.

IC50 [nM]	Compound
< 100	N#CC1(Cc2ccc(C(F)(F)F)cc2)CCN(C(=O)c2cccnc2-c2ccncn2)CC1 [Compound A40, 1-(2-(pyrimidin-4-yl)nicotinoyl)-4-(4-(trifluoromethyl)benzyl)piperidine-4-carbonitrile]
< 100	C[C@H](c1ccc(C(F)(F)F)cc1F)C1(C#N)CCN(C(=O)c2cccnc2-c2ccncn2)CC1 [Compound A287, (S)-4-(1-(2-fluoro-4-(trifluoromethyl)phenyl)ethyl)-1-(2-(pyrimidin-4-yl)nicotinoyl)piperidine-4-carbonitrile]
< 100	N#CC1(Cc2cc(F)ccc2F)CCN(C(=O)c2cccnc2-c2ccncc2)CC1 [Compound A282, 1-([2,4′-bipyridine]-3-carbonyl)-4-(2,5-difluorobenzyl)piperidine-4-carbonitrile]
< 100	CC(c1c(F)cc(F)cc1F)C1(C#N)CCN(C(=O)c2cccnc2-c2ccncn2)CC1 (stereo in doubt) [Compound A270, (S)-1-(2-(pyrimidin-4-yl)nicotinoyl)-4-(1-(2,4,6-trifluorophenyl)ethyl)piperidine-4-carbonitrile]
< 100	N#CC1(Cc2ccccc2)CCN(C(=O)c2cccnc2-c2ccncn2)CC1 [Compound A31, 4-benzyl-1-(2-(pyrimidin-4-yl)nicotinoyl)piperidine-4-carbonitrile]
< 100	C[C@H](c1c(F)cccc1F)C1(C#N)CCN(C(=O)c2cccnc2-c2ccncc2)CC1 [Compound A245, (S)-1-([2,4′-bipyridine]-3-carbonyl)-4-(1-(2,6-difluorophenyl)ethyl)piperidine-4-carbonitrile]
< 100	N#CC1(Cc2c(F)cc(C(F)(F)F)cc2F)CCN(C(=O)c2cccnc2-c2ccncc2)CC1 [Compound A280, 1-([2,4′-bipyridine]-3-carbonyl)-4-(2,6-difluoro-4-(trifluoromethyl)benzyl)piperidine-4-carbonitrile]
< 100	N#CC1(Cc2ccc(C(F)(F)F)cc2F)CCN(C(=O)c2cccnc2-c2ccncn2)CC1 [Compound A240, 4-(2-fluoro-4-(trifluoromethyl)benzyl)-1-(2-(pyrimidin-4-yl)nicotinoyl)piperidine-4-carbonitrile]
< 100	COc1ccc(CC2(C#N)CCN(C(=O)c3cccnc3-c3ccncn3)CC2)cc1 [Compound A63, 4-(4-methoxybenzyl)-1-(2-(pyrimidin-4-yl)nicotinoyl)piperidine-4-carbonitrile]
< 100	N#CC1(Cc2ccc(F)cc2F)CCN(C(=O)c2cccnc2-c2ccncn2)CC1 [Compound A51, 4-(2,4-difluorobenzyl)-1-(2-(pyrimidin-4-yl)nicotinoyl)piperidine-4-carbonitrile]
< 100	CC(c1c(F)cc(F)cc1F)C1(C#N)CCN(C(=O)c2cccnc2-c2ccncn2)CC1 (stereo in doubt) [Compound A271, (R)-1-(2-(pyrimidin-4-yl)nicotinoyl)-4-(1-(2,4,6-trifluorophenyl)ethyl)piperidine-4-carbonitrile]
< 100	Cc1ccc(CC2(C#N)CCN(C(=O)c3cccnc3-c3ccncn3)CC2)cn1 [Compound A201, 4-((6-methylpyridin-3-yl)methyl)-1-(2-(pyrimidin-4-yl)nicotinoyl)piperidine-4-carbonitrile]
< 100	N#CC1(Cc2ccc(F)cc2)CCN(C(=O)c2c(F)cccc2-c2ccncn2)CC1 [Compound A221, 1-(2-fluoro-6-(pyrimidin-4-yl)benzoyl)-4-(4-fluorobenzyl)piperidine-4-carbonitrile]
< 100	N#CC1(Cc2cccc(C(F)(F)F)c2F)CCN(C(=O)c2cccnc2-c2ccncc2)CC1 [Compound A266, 1-([2,4′-bipyridine]-3-carbonyl)-4-(2-fluoro-3-(trifluoromethyl)benzyl)piperidine-4-carbonitrile]
< 100	CC(c1ccc(C(F)(F)F)cc1)C1(C#N)CCN(C(=O)c2cccnc2-c2ccncc2)CC1 (stereo in doubt) [Compound A269, (S)-1-([2,4′-bipyridine]-3-carbonyl)-4-(1-(4-(trifluoromethyl)phenyl)ethyl)piperidine-4-carbonitrile]
< 100	C[C@@H](c1ccc(F)cc1)C1(C#N)CCN(C(=O)c2cccnc2-c2ccncn2)CC1 [Compound A44, (S)-4-(1-(4-fluorophenyl)ethyl)-1-(2-(pyrimidin-4-yl)nicotinoyl)piperidine-4-carbonitrile]
